Source: US8575094B2, “Use of type-B lantibiotic-based compounds having antimicrobial activity” (Novacta Biosystems Limited, priority 2007, dated 2013)
Converted amounts (≈) assume the structure as drawn. Like-named read-outs stand apart in the source and are kept apart here.

Tests used:
C. difficile spores = test: Sporicidal activity: viable counts of C. difficile spores exposed to antibiotics; type: cell-based
Excerpt: An agent capable of killing, or preventing the successful germination of C. difficile spores would therefore be of considerable interest. To determine the effects of type B lantibiotics on C. difficile spores, suspensions of spores were exposed to antibiotics ([…]) and aliquots were taken at appropriate time points. The spores in each aliquot were filtered off and plated out on to Brazier's agar.

[1] = test system: Bifidobacterium adolescentis NCTC 11814; test: microbe, parasite or virus in culture; conditions: NCTC11814, read-out: Minimal Inhibitory Concentration (MIC)
E. coli = test: microbe, parasite or virus in culture; conditions: Escherichia coli
Clostridium difficile = test: microbe, parasite or virus in culture; type: cell-based; conditions: Clostridioides difficile
Excerpt: Compounds I to VII were screened against twelve clinical isolates of Clostridium difficile.
In addition, compounds L to LIII were screened against […] isolates of Clostridium difficile.

[2] = test system: Bifidobacterium longum NCTC 11818; test: microbe, parasite or virus in culture; conditions: NCTC11818, read-out: Minimal Inhibitory Concentration (MIC)
[3] = test system: Bacteroides fragilis NCTC 9343; test: microbe, parasite or virus in culture; conditions: NCTC9343, read-out: Minimal Inhibitory Concentration (MIC)
E. faecium = test: microbe, parasite or virus in culture; conditions: Enterococcus faecium
E. faecalis = test: microbe, parasite or virus in culture; conditions: Enterococcus faecalis
[4] = test system: Bacteroides thetaiotaomicron NCTC 10582; test: microbe, parasite or virus in culture; conditions: NCTC10582, read-out: Minimal Inhibitory Concentration (MIC)
[5] = test system: C. difficile strain VPI 10463; type: in vivo; conditions: hamster, three times daily at 50 mg/kg/day, 5-day dosing period
Procedure: The in vivo efficacy of two type B Lantibiotics in the treatment of C. difficile infections was evaluated in the standard animal model for CDAD: clindamycin-induced cecitis in hamster (FIG. 3). Four groups of six animals were dosed orally with approximately 10^7 cells of C. difficile strain VPI 10463 and 24 hours later with a subcutaneous dose of 10 mg/kg clindamycin phosphate.

[6] = VRE, read-out: Minimal Inhibitory Concentration (MIC)

With `CN[C@H](CC(C)C)C(=O)N[C@H]1C(=O)N[C@@H](CC(N)=O)C(=O)N[C@H]2C(=O)N[C@H]3C(=O)N[C@H](C(=O)N[C@H](C(=O)O)c4cc(O)cc(O)c4-c4cc3ccc4O)[C@H](O)c3ccc(c(Cl)c3)Oc3cc2cc(c3O[C@@H]2O[C@H](CO)[C@@H](O)[C@H](O)[C@H]2O[C@H]2C[C@](C)(N)[C@H](O)[C@H](C)O2)Oc2ccc(cc2Cl)[C@H]1O` [Vancomycin] the “Effect on C. difficile spore viability / germination” value (C. difficile spores; […]) was “no significant effect on spore viability”, the “Viable counts of C. difficile spores” value (C. difficile spores; antibiotic at 100 µg/ml, time 24 h) was 135 and the MIC [1] was 1 µg/mL (≈ 0.69 µM). It also gave an MIC (E. coli; ATCC25922, read-out: Minimal Inhibitory Concentration (MIC)) greater than 64 µg/mL, an MIC (E. coli; read-out: Minimal Inhibitory Concentration (MIC)) greater than 64 µg/mL and an MIC (Clostridium difficile; read-out: Minimal Inhibitory Concentration (MIC), C. difficile strain 027C) of 1 µg/mL (≈ 0.69 µM). For the same compound, the MIC (Clostridium difficile; read-out: Minimal Inhibitory Concentration (MIC), C. difficile strain 27SM) was 1 µg/mL (≈ 0.69 µM), the MIC (Clostridium difficile; read-out: Minimal Inhibitory Concentration (MIC), C. difficile strain 19126) was 1 µg/mL (≈ 0.69 µM) and the MIC (Clostridium difficile; read-out: Minimal Inhibitory Concentration (MIC), C. difficile strain 37779) was 2 µg/mL (≈ 1.38 µM). It also gave an MIC (Clostridium difficile; read-out: Minimal Inhibitory Concentration (MIC), C. difficile strain B32) of 1 µg/mL (≈ 0.69 µM), an MIC (Clostridium difficile; read-out: Minimal Inhibitory Concentration (MIC), C. difficile strain E4) of 1 µg/mL (≈ 0.69 µM) and an MIC (Clostridium difficile; read-out: Minimal Inhibitory Concentration (MIC), C. difficile strain E16) of 0.5 µg/mL (≈ 0.345 µM). The MIC (Clostridium difficile; read-out: Minimal Inhibitory Concentration (MIC), C. difficile strain E101) was 0.5 µg/mL (≈ 0.345 µM), the MIC (Clostridium difficile; read-out: Minimal Inhibitory Concentration (MIC), C. difficile strain P24) was 0.5 µg/mL (≈ 0.345 µM) and the MIC (Clostridium difficile; read-out: Minimal Inhibitory Concentration (MIC), C. difficile strain P49) was 1 µg/mL (≈ 0.69 µM). For the same compound, the MIC (Clostridium difficile; read-out: Minimal Inhibitory Concentration (MIC), C. difficile strain P59) was 1 µg/mL (≈ 0.69 µM), the MIC (Clostridium difficile; read-out: Minimal Inhibitory Concentration (MIC), C. difficile strain P62) was 1 µg/mL (≈ 0.69 µM) and the MIC [2] was 1 to 2 µg/mL (≈ 0.69 to 1.38 µM). The MIC [3] was 32 µg/mL (≈ 22.1 µM), the MIC (E. faecium; ATCC19579, read-out: Minimal Inhibitory Concentration (MIC)) was 0.5 µg/mL (≈ 0.345 µM) and the MIC (E. faecium; [6]) was greater than 64 µg/mL. The MIC (E. faecalis; ATCC29212, read-out: Minimal Inhibitory Concentration (MIC)) was 4 µg/mL (≈ 2.76 µM), the MIC (E. faecalis; [6]) was greater than 64 µg/mL and the MIC [4] was 64 µg/mL (≈ 44.2 µM). For the same compound, the “Survival of infected animals” value [5] was “survived for the duration of the entire 5-day dosing period”.
